Experimental data from ChEMBL document CHEMBL1121852, “Nonsteroidal antiinflammatory agents. 3. Synthesis of the positional isomers of 4'-chloro-5-methoxy-3-biphenylylacetic acid and their antiinflammatory and analgesic activities” (J Med Chem, 1981).

Tests used:
Rattus norvegicus [1] = experiment: Percent inhibition of carrageenan induced rat paw edema 3 hr after a peroral administration of 20 mg/kg; type: functional; settings: route oral
Rattus norvegicus [2] = experiment: Percent inhibition of carrageenan induced rat paw edema 3 hr after a peroral administration of 50 mg/kg; type: functional; settings: route oral
[3] = Tested for acute toxicity after administration of compound at 50 mg/kg intraperitoneally in mice; type: organism-based; design: dose 50 mg/kg, route intraperitoneal; settings: mouse, in vivo, ip
Mus musculus = experiment: Tested for inhibitory activity after administration of compound at 50 mg/kg perorally using AcOH writhing method; type: functional; settings: route oral
Rattus norvegicus [4] = experiment: Percent inhibition of carrageenan induced rat paw edema 3 hr after a peroral administration of 0.5 mg/kg; type: functional; settings: route oral
Rattus norvegicus [5] = experiment: Percent inhibition after administration at 2 mg/kg perorally using carrageenan induced rat paw edema method; type: functional; settings: route oral
Rattus norvegicus [6] = experiment: Percent inhibition of carrageenan induced rat paw edema 3 hr after a peroral administration of 10 mg/kg; type: functional; settings: route oral

Compound | inhibition in vivo at 20 mg/kg (Rattus norvegicus [1]) [%] | inhibition in vivo at 50 mg/kg (Rattus norvegicus [2]) [%] | LD50 [3] [mg/kg] | ED50 (Mus musculus) [mg/kg] | inhibition in vivo at 0.5 mg/kg (Rattus norvegicus [4]) [%] | inhibition in vivo at 2 mg/kg (Rattus norvegicus [5]) [%] | inhibition in vivo at 10 mg/kg (Rattus norvegicus [6]) [%]
COc1cc(CC(=O)O)ccc1-c1ccc(Cl)cc1 | 27 | 38 | 238 | 35.1 | – | – | –
COc1ccc2c(c1)c(CC(=O)O)c(C)n2C(=O)c1ccc(Cl)cc1 [INDOMETHACIN] | – | 45 | – | – | 19 | 25 | –
COc1cccc(CC(=O)O)c1-c1ccc(Cl)cc1 | – | 0 | 566 | > 50 | – | – | –
COc1ccc(-c2ccc(Cl)cc2)cc1CC(=O)O | – | 0 | 566 | > 50 | – | – | –
COc1cccc(-c2ccc(Cl)cc2)c1CC(=O)O | – | 0 | 476 | > 50 | – | – | –
COc1cc(-c2ccc(Cl)cc2)ccc1CC(=O)O | – | 27 | 400 | > 50 | – | – | –
COc1ccc(CC(=O)O)cc1-c1ccc(Cl)cc1 | 19 | 49 | 673 | 26.7 | – | – | –
COc1c(CC(=O)O)cccc1-c1ccc(Cl)cc1 | – | 16 | 283 | > 50 | – | – | –
COc1ccc(CC(=O)O)c(-c2ccc(Cl)cc2)c1 | – | 0 | 566 | > 50 | – | – | –
COc1cc(CC(=O)O)cc(-c2ccc(Cl)cc2)c1 | 65 | 53 | 570 | 16.1 | – | – | 39
COc1ccc(-c2ccc(Cl)cc2)c(CC(=O)O)c1 | – | 13 | 566 | > 50 | – | – | –
